The values that follow come from paper PMC9250534, “Synthesis and direct assay of large macrocycle diversities by combinatorial late-stage modification at picomole scale” (Nature Communications, 2022).

The structures appear in SMILES notation. Numbered stars: 1 amine (or outer) side, 2 acyl side, 3 side chain; on linkers, the order of the positions; unused ones are H or OH. Bridge positions count the residues as written; N and C are the ends. Square brackets hold non-standard residues; d marks the D form. Peptide text beside a SMILES is read from it. * marks the point of attachment. 2Thenoyl(5-Cl) = O=C(c1ccc(Cl)s1)*; Cysteamide = C(CS[*:3])N[*:1]; Mpa = O=C(O)CCS

In the test the target is T1, thrombin (Homo sapiens, UniProt P00734).
T1 construct: consists of two polypeptide chains of 36 (light chain) and 259 amino acid
Description: Thrombin inhibition screen of crude macrocycle reactions (residual thrombin activity, fluorogenic substrate Z-Gly-Gly-Arg-AMC). It is filed as biochemical. The note with it: 10 µM macrocycle concentration; for percent residual thrombin activity: crude reactions, Library 1a-l, scaffold AA1-AA2-AA3 combined with 1-16 or '-'; for % thrombin activity, Original screen / % thrombin activity, Repeat screen: macrocycles containing acid 14, crude reaction; for % thrombin activity, Repeat screen: replicate reaction and screen. An outline of the steps:
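Residual activity was measured as the AMC release rate after adding 50 μM Z-Gly-Gly-Arg-AMC. This followed a 10-min room-temperature preincubation of 2 nM thrombin with 10 μM single macrocycles in pH 7.4 Tris buffer (0.6% DMSO). Percent inhibition was taken against the mean slope of DMSO controls.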

With `CC[C@H](C)[C@@H]1NC(=O)[C@H](CCCNC(=O)c2ccco2)NC(=O)c2cccc(c2)CNC(=O)CCSSCCNC1=O` [B5-D2-I/16], the “percent residual thrombin activity” value was 105.125%.

For the molecule `COc1ccc(C(=O)NCCCC[C@@H]2NC(=O)[C@H](CO)NC(=O)c3cccc(c3)CNC(=O)CCSSCCNC2=O)cn1` [B5-S-D1/10], the “percent residual thrombin activity” value stood at 101.444%.

On to `CC(C)CC(=O)NCCCC[C@@H]1NC(=O)C2(CC2)CNC(=O)CCSSCCNC(=O)[C@H](CCC(N)=O)NC1=O` [B6-D1-Q/8], for which the “percent residual thrombin activity” value was determined as 101.194%.

Take `NC(=O)CC[C@@H]1NC(=O)[C@H](CCCCNC(=O)c2c[nH]c(=O)[nH]c2=O)NC(=O)C2(CC2)CNC(=O)CCSSCCNC1=O` [B6-D1-Q/11]: the “percent residual thrombin activity” value was determined as 105.488%.

Turning to `NC(=O)CC[C@@H]1NC(=O)[C@H](CCCCNC(=O)c2ccco2)NC(=O)C2(CC2)CNC(=O)CCSSCCNC1=O` [B6-D1-Q/16], the “percent residual thrombin activity” value stood at 101.173%.

In the case of `NCCCC[C@@H]1NC(=O)C2(CC2)CNC(=O)CCSSCCNC(=O)[C@H](CCC(N)=O)NC1=O` [B6-D1-Q/-], the “percent residual thrombin activity” value was found to be 103.82%.

For `CC(C)C[C@@H]1NC(=O)[C@H](CCCNC(=O)c2c[nH]c(=O)cn2)NC(=O)C2(CC2)CNC(=O)CCSSCCNC1=O` [B6-D2-L/9], the “percent residual thrombin activity” value is on record as 109.823%.

Take `CC(C)C[C@@H]1NC(=O)[C@H](CCCNC(=O)COc2ccccc2)NC(=O)C2(CC2)CNC(=O)CCSSCCNC1=O` [B6-D2-L/13]: the “percent residual thrombin activity” value was 118.291%.

Regarding `CC(C)[C@@H]1NC(=O)[C@H](CCCNC(=O)c2ccccc2)NC(=O)C2(CC2)CNC(=O)CCSSCCNC1=O` [B6-D2-V/1], the “percent residual thrombin activity” value is on record as 108.209%.

For the molecule `CC(C)[C@@H]1NC(=O)[C@H](CCCN)NC(=O)C2(CC2)CNC(=O)CCSSCCNC1=O` [B6-D2-V/-], the “percent residual thrombin activity” value came to 112.468%.

As to `O=C1CCSSCCNC(=O)[C@H](Cc2c[nH]c3ccccc23)NC(=O)[C@H](CCCNC(=O)c2ccccc2)NC(=O)C2(CC2)CN1` [B6-D2-W/1], the “percent residual thrombin activity” value was 97.8863%.

`O=C1CCSSCCNC(=O)[C@H](Cc2c[nH]c3ccccc23)NC(=O)[C@H](CCCNC(=O)c2cnccn2)NC(=O)C2(CC2)CN1` [B6-D2-W/2]: the “percent residual thrombin activity” value came out at 95.9188%.

For `COc1ccc(C(=O)NCCC[C@@H]2NC(=O)C3(CC3)CNC(=O)CCSSCCNC(=O)[C@H](Cc3c[nH]c4ccccc34)NC2=O)cn1` [B6-D2-W/10], the “percent residual thrombin activity” value worked out at 93.1158%.

Regarding `O=C1CCSSCCNC(=O)[C@H](Cc2c[nH]c3ccccc23)NC(=O)[C@H](CCCNC(=O)c2c[nH]c(=O)[nH]c2=O)NC(=O)C2(CC2)CN1` [B6-D2-W/11], the “percent residual thrombin activity” value is given as 94.9215%.

Consider `O=C1CCSSCCNC(=O)[C@H](Cc2c[nH]c3ccccc23)NC(=O)[C@H](CCCNC(=O)Cc2c[nH]c3ccccc23)NC(=O)C2(CC2)CN1` [B6-D2-W/12], for which the “percent residual thrombin activity” value is given as 93.2541%.

Turning to `O=C1CCSSCCNC(=O)[C@H](Cc2c[nH]c3ccccc23)NC(=O)[C@H](CCCNC(=O)COc2ccccc2)NC(=O)C2(CC2)CN1` [B6-D2-W/13], the “percent residual thrombin activity” value worked out at 95.6589%.

In the case of `CC(C)CC(=O)NCCC[C@@H]1NC(=O)C2(CC2)CNC(=O)CCSSCCNC(=O)[C@H](Cc2ccc(O)cc2)NC1=O` [B6-D2-Y/8], the “percent residual thrombin activity” value is reported as 103.129%.

Turning to `O=C1CCSSCCNC(=O)[C@H](Cc2ccc(O)cc2)NC(=O)[C@H](CCCNC(=O)c2c[nH]c(=O)cn2)NC(=O)C2(CC2)CN1` [B6-D2-Y/9], the “percent residual thrombin activity” value was 103.418%.

Take `COc1ccc(C(=O)NCCC[C@@H]2NC(=O)C3(CC3)CNC(=O)CCSSCCNC(=O)[C@H](Cc3ccc(O)cc3)NC2=O)cn1` [B6-D2-Y/10]: the “percent residual thrombin activity” value is listed as 102.307%.

For the molecule `O=C1CCSSCCNC(=O)[C@H](Cc2ccc(O)cc2)NC(=O)[C@H](CCCNC(=O)c2c[nH]c(=O)[nH]c2=O)NC(=O)C2(CC2)CN1` [B6-D2-Y/11], the “percent residual thrombin activity” value was found to be 102.523%.

Take `O=C1CCSSCCNC(=O)[C@H](Cc2ccc(O)cc2)NC(=O)[C@H](CCCNC(=O)Cc2c[nH]c3ccccc23)NC(=O)C2(CC2)CN1` [B6-D2-Y/12]: the “percent residual thrombin activity” value was 103.867%.

In the case of `O=C1CCSSCCNC(=O)[C@H](Cc2ccc(O)cc2)NC(=O)[C@H](CCCNC(=O)COc2ccccc2)NC(=O)C2(CC2)CN1` [B6-D2-Y/13], the “percent residual thrombin activity” value was 105.408%.

For `O=C1CCSSCCNC(=O)[C@H](Cc2ccc(O)cc2)NC(=O)[C@H](CCCNC(=O)c2ccc(Cl)s2)NC(=O)C2(CC2)CN1` [B6-D2-Y/14], the “percent residual thrombin activity” value was 95.7216%.

For `O=C1CCSSCCNC(=O)[C@H](CCCCNC(=O)c2ccccc2)NC(=O)[C@H](Cc2ccc(O)cc2)NC(=O)C2(CC2)CN1` [B6-Y-D1/1], the “percent residual thrombin activity” value stood at 104.596%.

`O=C1CCSSCCNC(=O)[C@H](CCCCNC(=O)c2cnccn2)NC(=O)[C@H](Cc2ccc(O)cc2)NC(=O)C2(CC2)CN1` [B6-Y-D1/2]: the “percent residual thrombin activity” value is on record as 106.813%.

As to `COc1ccc(C(=O)NCCCC[C@@H]2NC(=O)[C@H](Cc3ccc(O)cc3)NC(=O)C3(CC3)CNC(=O)CCSSCCNC2=O)cn1` [B6-Y-D1/10], the “percent residual thrombin activity” value came to 104.034%.

As to `O=C1CCSSCCNC(=O)[C@H](CCCCNC(=O)c2c[nH]c(=O)[nH]c2=O)NC(=O)[C@H](Cc2ccc(O)cc2)NC(=O)C2(CC2)CN1` [B6-Y-D1/11], the “percent residual thrombin activity” value is on record as 105.574%.

For the molecule `O=C1CCSSCCNC(=O)[C@H](CCCCNC(=O)Cc2c[nH]c3ccccc23)NC(=O)[C@H](Cc2ccc(O)cc2)NC(=O)C2(CC2)CN1` [B6-Y-D1/12], the “percent residual thrombin activity” value is given as 101.278%.

For the molecule `O=C1CCSSCCNC(=O)[C@H](CCCCNC(=O)COc2ccccc2)NC(=O)[C@H](Cc2ccc(O)cc2)NC(=O)C2(CC2)CN1` [B6-Y-D1/13], the “percent residual thrombin activity” value is recorded as 106.992%.

As to `Cc1nnsc1C(=O)NCCCC[C@@H]1NC(=O)[C@H](Cc2ccc(O)cc2)NC(=O)C2(CC2)CNC(=O)CCSSCCNC1=O` [B6-Y-D1/15], the “percent residual thrombin activity” value stood at 105.617%.

`O=C1CCSSCCNC(=O)[C@H](CCCCNC(=O)c2ccco2)NC(=O)[C@H](Cc2ccc(O)cc2)NC(=O)C2(CC2)CN1` [B6-Y-D1/16]: the “percent residual thrombin activity” value is listed as 103.228%.

For `NCCCC[C@@H]1NC(=O)[C@H](Cc2ccc(O)cc2)NC(=O)C2(CC2)CNC(=O)CCSSCCNC1=O` [B6-Y-D1/-], the “percent residual thrombin activity” value worked out at 104.679%.

On to `O=C1CNC(=O)[C@@H]2CCCN2C(=O)[C@@H](NC(=O)c2ccc(Cl)s2)CSSCCNC(=O)[C@H](Cc2ccccc2)N1` [C B1 G F] ({2Thenoyl(5-Cl)}-CPGF-Cysteamide; disulfide 1-C), for which the “% thrombin activity, Original screen” value is on record as 91.5% and the “% thrombin activity, Repeat screen” value came out at 96.1%.

As to `O=C1CNC(=O)[C@H](Cc2ccc(O)cc2)NC(=O)[C@@H]2CCCN2C(=O)[C@@H](NC(=O)c2ccc(Cl)s2)CSSCCN1` [C B1 Y G] ({2Thenoyl(5-Cl)}-CPYG-Cysteamide; disulfide 1-C), the “% thrombin activity, Original screen” value is recorded as 98.5% and the “% thrombin activity, Repeat screen” value is recorded as 102.3%.

With `CC[C@H](C)[C@@H]1NC(=O)CNC(=O)CCNC(=O)[C@@H](NC(=O)c2ccc(Cl)s2)CSSCCNC1=O` [C B2 G I], the “% thrombin activity, Original screen” value came to 110.0% and the “% thrombin activity, Repeat screen” value was found to be 114.7%.

In the case of `O=C1CCNC(=O)[C@@H](NC(=O)c2ccc(Cl)s2)CSSCCNC(=O)[C@@H](CO)NC(=O)CN1` [C B2 G s], the “% thrombin activity, Original screen” value amounted to 112.4% and the “% thrombin activity, Repeat screen” value is on record as 112.3%.

With `O=C1CNC(=O)c2ccc(cc2)CNC(=O)[C@@H](NC(=O)c2ccc(Cl)s2)CSSCCNC(=O)[C@H](Cc2cnc[nH]2)N1` [C B3 G H], the “% thrombin activity, Original screen” value was 103.1% and the “% thrombin activity, Repeat screen” value turned out to be 116.7%.

Regarding `CC[C@H](C)[C@@H]1NC(=O)c2ccc(cc2)CNC(=O)[C@@H](NC(=O)c2ccc(Cl)s2)CSSCCNC(=O)CNC1=O` [C B3 I G], the “% thrombin activity, Original screen” value is listed as 106.0% and the “% thrombin activity, Repeat screen” value is on record as 113.6%.

With `CC(C)C1NC(=O)C2CCCN(C2)C(=O)C(NC(=O)c2ccc(Cl)s2)CSSCCNC(=O)CNC1=O` (stereo not shown) [C B4 V G], the “% thrombin activity, Original screen” value amounted to 107.3% and the “% thrombin activity, Repeat screen” value was found to be 115.5%.

On to `CC(C)C[C@@H]1NC(=O)C2(CC2)CNC(=O)CNC(=O)[C@@H](NC(=O)c2ccc(Cl)s2)CSSCCNC1=O` [C G B6 L], for which the “% thrombin activity, Original screen” value stood at 109.3% and the “% thrombin activity, Repeat screen” value turned out to be 114.8%.

With `O=C1CNC(=O)[C@@H](NC(=O)c2ccc(Cl)s2)CSSCCNC(=O)c2ccc(cc2)CNC(=O)[C@@H](CO)N1` [C G s B3], the “% thrombin activity, Original screen” value turned out to be 93.7% and the “% thrombin activity, Repeat screen” value amounted to 99.7%.

On to `CC(C)C1NC(=O)C(NC(=O)c2ccc(Cl)s2)CSSCCNC(=O)c2cccc(c2)CNC(=O)CNC1=O` (stereo not shown) [C v G B5], for which the “% thrombin activity, Original screen” value came to 111.1% and the “% thrombin activity, Repeat screen” value is on record as 111.8%.

Take `CC1NC(=O)C2CCCN2C(=O)C(CCCCNC(=O)c2ccc(Cl)s2)NC(=O)CCSSCCNC1=O` (stereo not shown) [D1-B1-a/14] ([Mpa]K(2Thenoyl(5-Cl))PA-Cysteamide; disulfide 1-C; configuration not given here): the “percent residual thrombin activity” value was 96.3758%.

As to `O=C1CCSSCCNC(=O)[C@@H](Cc2ccc(O)cc2)NC(=O)CCNC(=O)[C@H](CCCCNC(=O)c2c[nH]c(=O)cn2)N1` [D1-B2-y/9], the “percent residual thrombin activity” value turned out to be 109.951%.

For the molecule `COc1ccc(C(=O)NCCCC[C@@H]2NC(=O)CCSSCCNC(=O)[C@@H](Cc3ccc(O)cc3)NC(=O)CCNC2=O)cn1` [D1-B2-y/10], the “percent residual thrombin activity” value stood at 108.421%.
